{
  "source": "patent US7618968B2",
  "about": "“Aryl triazines as LPAAT-β inhibitors and uses thereof” (Cell Therapeutics, Inc., priority 2001, dated 2009)",
  "data": [
    {"molecular_target": "T1, LPAAT-β (Homo sapiens, UniProt O15120)", "T1 construct": "the full-length human LPAAT-β cDNA was amplified by PCR; poly-histidine tag (from pFastBac HTc vector) (N); made in house; host or cells: Sf9 insect cells (baculovirus); membrane fraction used", "T1 sequence (O15120 24-278)": "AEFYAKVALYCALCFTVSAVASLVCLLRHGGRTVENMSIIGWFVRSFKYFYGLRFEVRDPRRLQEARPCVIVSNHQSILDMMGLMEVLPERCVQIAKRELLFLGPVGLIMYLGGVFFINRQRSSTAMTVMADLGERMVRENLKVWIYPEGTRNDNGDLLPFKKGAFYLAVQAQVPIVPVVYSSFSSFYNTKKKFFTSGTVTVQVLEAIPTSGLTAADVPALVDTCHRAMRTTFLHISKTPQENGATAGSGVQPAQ", "test": "LPAAT-β cell-free assay (colorimetric primary screen, radiometric/fluorescent TLC secondary assay)", "format": "biochemical", "settings": "Sf9 cell membrane overexpressing LPAAT-β", "description": "A. Production of Recombinant LPAAT-β for Assays\nFor the construction of Baculovirus expression vectors, the full-length human LPAAT-β cDNA was amplified by PCR from the DNA template pCE9.LPAAT-β (West et al., DNA Cell Biol. 16:691-701 (1997)) using the primers 5′-[…] […] […] […]-3′ (olpb1F; SEQ ID NO:1) and 5′-[…] […] […]-3′ (olpb1R; SEQ ID NO:2). The ˜870 bp fragment generated was reamplified by PCR using the primers 5′[…] […] […] […] ATC-3′ (olpb2F; SEQ ID NO:3) and 5′-[…] […] […]-3′ (olpb1R; SEQ ID NO:2). The ˜890 bp fragment generated was then cleaved with Sal I and Xba I for insertion into pFastBac™ HTc vector (Life Technologies, Gaithersberg, Md.) between the Sal I and Xba I sites for the generation of the plasmid pFB.LPAAT-β. This plasmid was then transformed into E. coli DH10Bac™ (Life Technologies, Gaithersberg, Md.) for the generation of recombinant Bacmid DNA for transfection in HighFive (Invitrogen, San Diego, Calif.) or SF9 insect cells for the production of recombinant Baculovirus stocks using the protocol described in the Bac-to-Bac® Baculovirus Expression System (Life Technologies, Gaithersberg, Md.), a eukaryotic expression system for generating recombinant baculovirus through site-specific transposition in E. coli. Viral stocks harvested from the transfected cells can then be used to infect fresh insect cells for the subsequence expression of LPAAT-β fusion protein with a poly-histidine tag and a myc-epitope near its N-terminus. The membrane fraction from these Sf9 cells would be the source of LPAAT enzyme.\nB. Preparation of Cell Membranes from Sf9 Cells\nFor the preparation of membranes from Sf9 Cells, all steps are performed on ice or at 4° C. Sf9 cell pellets (˜10^8 cells) were thawed and resuspended in 1-2 ml of buffer A (20 mM Hepes, pH 7.5, 1 mM DTT, 1 mM EDTA, 20% w/v glycerol, 1 mM Benzamidine, 1 μg/ml soybean trypsin inhibitor (SBTI), 1 μg/ml pepstatin A) w/o DTT but with 1 mM Pefabloc. The cells were lysed by sonication using a Branson Sonifier at output=2, duty cycle=2, 10 pulses each at 10s. with the tip of small sonicator probe submerged but not touching the walls. DTT was then added to 1 mM from a 1 M stock. The samples were centrifuged at 1500 rpm for 5 min. The low speed supernatant was saved and centrifuged (TLA 100.3 rotor, polycarbonate tubes, 2 ml/tube or 1.5 ml/tube minimum) at 100000×g for 1 hr. The high speed pellet was resuspend in Buffer A with a probe sonicator (10 pulses @ output #2 and duty cycle 20%) as a source of LPAAT enzyme.\nC. Assay of LPAAT-β Activity\nLPAAT-β catalyzes the transfer of an acyl group from a donor such as acyl-CoA to LPA. The transfer of the acyl group from acyl-CoA to LPA leads to the release of free CoA, which can be reacted with the thiol reagent, 5,5′-dithiobis(2-nitrobenzoic acid) (DTNB). The reaction between DTNB and the free sulfhydryl group from CoA generates a yellow-colored product, 3-carboxylato-4-nitrothiophenolate (CNP), that absorbs at 413 nm. LPAAT-β derived from Sf9 cell membrane overexpressing LPAAT-β were resuspended in HEPES saline buffer (20 mM HEPES pH 7.5, 150 mM NaCl), 1 mg/ml BSA and 72 μl aliquots were distributed into 96-well microtiter plates. 8 μl of compound of interest at 200 μM dissolved in 100% DMSO was added into each well. 20 μl of 1 mM 18:1-CoA and 1 mM sn-1-18:1 lysoPA was then added to each well to initiate the reaction and allowed to run at room temperature for 25 min. 100 μl of 1 mM DTNB in 100% ethanol was then added to each well to quench the reaction and for color development. The absorbance at 405 nm, measured using a spectrophotometer plate reader, is proportional to the activity of LPAAT-β in the sample. This colorimetric assay was used for the high throughput screening of LPAAT inhibitors.", "units": {"IC50": "nM"}, "values": [
      {"smiles": "COc1ccc(Cl)cc1-c1nc(N)nc(Nc2ccc(Cl)cc2)n1", "note": "[Example 1, 6-(5-Chloro-2-methoxyphenyl)-N-(4-chlorophenyl)-[1,3,5]triazine-2,4-diamine]", "IC50": 57},
      {"smiles": "COc1ccc(Cl)cc1-c1nc(N)nc(Nc2ccccc2)n1", "note": "[Example 2, 6-(5-Chloro-2-methoxyphenyl)-N-phenyl-[1,3,5]triazine-2,4-diamine]", "IC50": 2300},
      {"smiles": "COc1ccc(Cl)cc1-c1nc(N)nc(Nc2ccc([N+](=O)[O-])cc2)n1", "note": "[Example 3, 6-(5-Chloro-2-methoxyphenyl)-N-(4-nitrophenyl)-[1,3,5]triazine-2,4-diamine]", "IC50": 22},
      {"smiles": "Nc1nc(Nc2ccc(Cl)cc2)nc(-c2cc(Cl)ccc2Cl)n1", "note": "[Example 4, 6-(2,5-Dichlorophenyl)-N-(4-chlorophenyl)-[1,3,5]triazine-2,4-diamine]", "IC50": 50},
      {"smiles": "COc1ccc(Cl)cc1-c1nc(N)nc(Nc2ccc3c(c2)OCO3)n1", "note": "[Example 5, N-Benzo[1,3]dioxol-5-yl-6-(5-chloro-2-methoxyphenyl)-[1,3,5]triazine-2,4-diamine]", "IC50": 280},
      {"smiles": "CCOc1ccc(Cl)cc1-c1nc(N)nc(Nc2ccc(Cl)cc2)n1", "note": "[Example 7, 6-(5-Chloro-2-ethoxyphenyl)-N-(4-Chlorophenyl)-[1,3,5]triazine-2,4-diamine]", "IC50": 140},
      {"smiles": "COc1ccc(Cl)cc1-c1nc(N)nc(Nc2ccc(Cl)c(Cl)c2)n1", "note": "[Example 8, 6-(5-Chloro-2-methoxyphenyl)-N-(3,4-dichlorophenyl)-[1,3,5]triazine-2,4-diamine]", "IC50": 140},
      {"smiles": "Cc1ccc(Cl)cc1-c1nc(N)nc(Nc2ccc(Cl)cc2)n1", "note": "[Example 9, 6-(5-Chloro-2-methylphenyl)-N-(4-Chlorophenyl)-[1,3,5]triazine-2,4-diamine]", "IC50": 55},
      {"smiles": "COc1ccc(Cl)cc1-c1nc(N)nc(Nc2ccc(Br)cc2)n1", "note": "[Example 10, N-2-(4-Bromophenyl)-6-(5-chloro-2-methoxyphenyl)-[1,3,5]triazine-2,4-diamine]", "IC50": 76},
      {"smiles": "Cc1ccc(Cl)cc1-c1nc(N)nc(Nc2ccc(Br)cc2)n1", "note": "[Example 11, N-2-(4-Bromophenyl)-6-(5-chloro-2-methylphenyl)-[1,3,5]triazine-2,4-diamine]", "IC50": 60},
      {"smiles": "Nc1nc(Nc2ccc(Br)cc2)nc(-c2cc(Cl)ccc2Cl)n1", "note": "[Example 12, N-2-(4-Bromophenyl)-6-(2,5-dichlorophenyl)-[1,3,5]triazine-2,4-diamine]", "IC50": 70},
      {"smiles": "Cc1ccc(Cl)cc1-c1nc(N)nc(Nc2ccc3cn[nH]c3c2)n1", "note": "[Example 13, 6-(5-Chloro-2-Methyl-Phenyl)-N-(1H-Indazol-6-yl)-[1,3,5]Triazine-2,4-Diamine]", "IC50": 55},
      {"smiles": "Cc1ccc(C)c(-c2nc(N)nc(Nc3ccc(Cl)cc3)n2)c1", "note": "[Example 14, N-(4-chlorophenyl)-6-(2,5-dimethylphenyl)-[1,3,5]triazine-2,4-diamine]", "IC50": 250},
      {"smiles": "COc1ccc(Cl)cc1-c1nc(N)nc(Nc2ccc(F)cc2)n1", "note": "[Example 15, 6-(5-Chloro-2-methoxyphenyl)-N-(4-fluorophenyl)-[1,3,5]triazine-2,4-diamine]", "IC50": 430},
      {"smiles": "Nc1nc(Nc2ccc(Cl)cc2)nc(-c2cccc(Cl)c2)n1", "note": "[Example 16, N-(4-chlorophenyl)-6-(3-chlorophenyl)-[1,3,5]triazine-2,4-diamine]", "IC50": 800},
      {"smiles": "COc1ccc(OC)c(-c2nc(N)nc(Nc3ccc(Cl)cc3)n2)c1", "note": "[Example 17, N-(4-chlorophenyl)-6-(2,5-dimethoxyphenyl)-[1,3,5]triazine-2,4-diamine]", "IC50": 1000},
      {"smiles": "Cc1ccc(Cl)cc1-c1nc(N)nc(Nc2ccc3c(c2)OCO3)n1", "note": "[Example 19, N-Benzo[1.3]dioxol-5-yl-6-(5-chloro-2-methyl-phenyl)-[1,3,5]triazine-2,4-diamine]", "IC50": 200},
      {"smiles": "Cc1ccc(Cl)cc1-c1nc(Cl)nc(Nc2ccc(Br)cc2)n1", "note": "[Example 20, (4-Bromo-phenyl)-[4-chloro-6-(5-chloro-2-methyl-phenyl)-[1,3,5]triazin-2-yl]-amine]", "IC50": 10},
      {"smiles": "COc1nc(Nc2ccc(Br)cc2)nc(-c2cc(Cl)ccc2C)n1", "note": "[Example 21]", "IC50": 200},
      {"smiles": "Cc1nc(Nc2ccc3cn[nH]c3c2)nc(-c2cc(Cl)ccc2C)n1", "note": "[Example 22, [4-(5-Chloro-2-methyl-phenyl)-6-methyl-[1,3,5]triazin-2-yl]-(1H-indazol-6-yl)-amine]", "IC50": 13},
      {"smiles": "Cc1nc(Nc2ccc(Br)cc2)nc(-c2cc(Cl)ccc2C)n1", "note": "[Example 23]", "IC50": 14},
      {"smiles": "CCc1nc(Nc2ccc(Br)cc2)nc(-c2cc(Cl)ccc2C)n1", "note": "[Example 24]", "IC50": 700},
      {"smiles": "Cc1ccc(Cl)cc1-c1nc(Cl)nc(Nc2ccc3cn[nH]c3c2)n1", "note": "[Example 26, [4-Chloro-6-(5-chloro-2-methyl-phenyl)-[1,3,5]triazin-2-yl]-(1H-indazol-6-yl)-amine]", "IC50": 4},
      {"smiles": "NCc1nc(Nc2ccc(Br)cc2)nc(-c2cc(Cl)ccc2Cl)n1", "note": "[Example 27]", "IC50": 2700},
      {"smiles": "Cc1ccc(Cl)cc1-c1nc(C#N)nc(Nc2ccc(Br)cc2)n1", "note": "[Example 28]", "IC50": 420},
      {"smiles": "CSc1nc(Nc2ccc(Br)cc2)nc(-c2cc(Cl)ccc2C)n1", "note": "[Example 29, (4-Bromo-phenyl)-[4-(5-chloro-2-methyl-phenyl)-6-methylsulfanyl-[1,3,5]triazin-2-yl]-amine]", "IC50": 1100},
      {"smiles": "Cc1ccc(Cl)cc1-c1nc(Cl)nc(Nc2ccc([N+](=O)[O-])cc2)n1", "note": "[Example 30, [6-(5-Chloro-2-methyl-phenyl)-2-chloro-3-yl-[1,3,5]-triazin-4-yl]-(4-nitro-phenyl)-amine]", "IC50": 10},
      {"smiles": "Cc1ccc(Cl)cc1-c1nc(Nc2ccc(Cl)cc2)nc(N2CCCCC2)n1", "note": "[Example 31]", "IC50": 6000},
      {"smiles": "Cc1ccc(Cl)cc1-c1ncnc(Nc2ccc(Cl)cc2)n1", "note": "[Example 33, [6-(5-Chloro-2-methyl-phenyl)-[1,3,5]triazin-4-yl]-(4-chloro-phenyl)-amine]", "IC50": 240},
      {"smiles": "CNc1cc(Nc2nc(N)nc(-c3cc(Cl)ccc3C)n2)ccc1Cl", "note": "[Example 34, N-(4-Chloro-3-methylamino-phenyl)-6-(5-chloro-2-methyl-phenyl)-[1,3,5]triazine-2,4-diamine]", "IC50": 160},
      {"smiles": "Cc1ccc(Cl)cc1-c1nc(Cl)nc(Nc2ccc(N=[N+]=[N-])cc2)n1", "note": "[Example 35, [6-(5-Chloro-2-methyl-phenyl)-2-chloro-3-yl-[1,3,5]-triazin-4-yl]-(4-azido-phenyl)-amine]", "IC50": 130},
      {"smiles": "Cc1ccc(Cl)cc1-c1nc(N)nc(Nc2ccc(N=[N+]=[N-])cc2)n1", "note": "[Example 36, 6-(5-Chloro-2-methyl-phenyl)-N-(4-azido-phenyl)-amino-[1,3,5]triazine-2,4-diamine]", "IC50": 880},
      {"smiles": "Cc1ccc(Cl)cc1-c1nc(N)nc(Nc2ccc3c(c2)CCC3)n1", "note": "[Example 37, 6-(5-Chloro-2-methyl-phenyl)-N-indan-5-yl-[1,3,5]triazine-2,4-diamine]", "IC50": 590}
    ]}
  ]
}
